Measurements taken from patent US20250017940A1, “SELECTIVE PEPTIDOMIMETIC MODULATORS OF CAV2.2 (N-TYPE) VOLTAGE-GATED CALCIUM CHANNELS AND USES THEREOF” (New York University, priority 2023, published 2025).

Key:
rat DRG sensory neurons = assay: Whole-cell current-clamp, excitability of DRG sensory neurons; type: cell-based; design: rheobase: unit not given here
Experimental: Cav2.2 channels have critical roles in controlling the excitability of DRG neurons, according to earlier studies (Yang et al., 2018). Since Cav2.2 populations are affected by CBD3063, the ability of CBD3063 to alter the excitability of DRG sensory neurons was investigated (FIGS. 7A-D). Action potentials (AP) were elicited in rat sensory neurons during whole cell current-clamp tests in response to current injections from 0-120 pA after overnight incubation with 0.1% DMSO or 20 μM CBD3063.

Cav2.2 = target: T1, Cav2.2 (Rattus norvegicus, UniProt Q02294); assay: Immunocytochemistry / confocal microscopy of Cav2.2 membrane expression in DRG neurons; type: cell-based; conditions: 20 μM overnight (DMSO: 3.59±0.42)
T1 construct: Recordings were obtained from acutely dissociated DRG neurons; endogenous in cells; host or cells: primary rat DRG neurons
T1 sequence (Q02294 whole entry): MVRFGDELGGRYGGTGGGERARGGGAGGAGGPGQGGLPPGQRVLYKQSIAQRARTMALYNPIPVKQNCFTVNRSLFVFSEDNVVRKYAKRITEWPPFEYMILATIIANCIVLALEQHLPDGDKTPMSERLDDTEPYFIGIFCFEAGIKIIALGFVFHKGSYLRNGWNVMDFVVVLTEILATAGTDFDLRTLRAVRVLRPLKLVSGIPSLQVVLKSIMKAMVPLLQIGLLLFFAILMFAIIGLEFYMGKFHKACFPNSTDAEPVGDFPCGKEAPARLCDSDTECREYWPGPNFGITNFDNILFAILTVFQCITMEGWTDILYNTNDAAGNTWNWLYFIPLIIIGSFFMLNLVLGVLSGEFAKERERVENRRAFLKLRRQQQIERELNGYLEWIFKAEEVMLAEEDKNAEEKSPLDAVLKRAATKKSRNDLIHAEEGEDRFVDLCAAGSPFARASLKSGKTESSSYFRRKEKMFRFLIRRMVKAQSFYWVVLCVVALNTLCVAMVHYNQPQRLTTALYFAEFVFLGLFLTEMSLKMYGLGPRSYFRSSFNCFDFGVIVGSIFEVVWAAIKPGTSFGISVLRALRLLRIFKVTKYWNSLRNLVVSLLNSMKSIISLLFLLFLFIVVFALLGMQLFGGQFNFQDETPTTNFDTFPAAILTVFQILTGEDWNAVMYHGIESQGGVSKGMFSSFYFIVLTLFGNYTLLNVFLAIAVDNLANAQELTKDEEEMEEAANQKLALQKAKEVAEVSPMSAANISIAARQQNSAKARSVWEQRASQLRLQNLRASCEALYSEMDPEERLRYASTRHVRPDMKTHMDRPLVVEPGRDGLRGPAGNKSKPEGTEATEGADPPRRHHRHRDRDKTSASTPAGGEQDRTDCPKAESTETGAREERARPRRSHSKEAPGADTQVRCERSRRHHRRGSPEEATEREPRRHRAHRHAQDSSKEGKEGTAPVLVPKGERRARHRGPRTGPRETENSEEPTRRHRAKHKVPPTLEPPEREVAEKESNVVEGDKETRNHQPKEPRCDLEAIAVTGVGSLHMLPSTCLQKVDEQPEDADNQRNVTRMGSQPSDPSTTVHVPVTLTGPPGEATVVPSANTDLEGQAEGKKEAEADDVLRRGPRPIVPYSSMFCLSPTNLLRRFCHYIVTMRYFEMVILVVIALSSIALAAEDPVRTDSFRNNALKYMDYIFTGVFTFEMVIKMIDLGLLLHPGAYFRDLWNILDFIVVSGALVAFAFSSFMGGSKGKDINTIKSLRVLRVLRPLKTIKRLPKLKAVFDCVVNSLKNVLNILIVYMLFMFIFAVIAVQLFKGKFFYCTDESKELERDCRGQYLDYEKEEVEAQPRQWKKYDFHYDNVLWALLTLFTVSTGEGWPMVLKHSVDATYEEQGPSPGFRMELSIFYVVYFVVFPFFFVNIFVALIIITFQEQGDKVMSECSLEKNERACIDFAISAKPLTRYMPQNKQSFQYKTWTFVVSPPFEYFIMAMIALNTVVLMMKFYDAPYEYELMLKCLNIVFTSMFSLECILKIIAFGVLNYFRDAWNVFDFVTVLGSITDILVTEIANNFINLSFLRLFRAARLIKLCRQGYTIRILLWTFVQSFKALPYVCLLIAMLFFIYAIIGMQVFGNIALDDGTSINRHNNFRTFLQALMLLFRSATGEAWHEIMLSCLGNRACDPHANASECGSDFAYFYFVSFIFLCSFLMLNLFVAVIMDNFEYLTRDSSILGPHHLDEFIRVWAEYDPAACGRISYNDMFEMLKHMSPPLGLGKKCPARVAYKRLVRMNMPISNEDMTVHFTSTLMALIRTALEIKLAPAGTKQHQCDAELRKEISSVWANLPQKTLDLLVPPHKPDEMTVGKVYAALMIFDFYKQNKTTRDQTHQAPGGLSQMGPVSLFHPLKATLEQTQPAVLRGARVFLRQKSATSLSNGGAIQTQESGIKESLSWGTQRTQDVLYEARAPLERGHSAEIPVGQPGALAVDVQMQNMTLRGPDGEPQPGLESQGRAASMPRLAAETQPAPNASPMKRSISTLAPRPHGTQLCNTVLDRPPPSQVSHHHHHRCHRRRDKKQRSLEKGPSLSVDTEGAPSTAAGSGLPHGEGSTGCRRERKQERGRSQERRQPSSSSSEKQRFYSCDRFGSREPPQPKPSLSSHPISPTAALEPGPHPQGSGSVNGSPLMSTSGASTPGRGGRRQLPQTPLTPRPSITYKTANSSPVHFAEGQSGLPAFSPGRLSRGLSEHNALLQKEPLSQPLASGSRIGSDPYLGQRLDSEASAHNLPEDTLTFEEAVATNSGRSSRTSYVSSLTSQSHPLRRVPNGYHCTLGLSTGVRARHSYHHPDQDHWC
T1 sequence (P54290 25-1091 partner): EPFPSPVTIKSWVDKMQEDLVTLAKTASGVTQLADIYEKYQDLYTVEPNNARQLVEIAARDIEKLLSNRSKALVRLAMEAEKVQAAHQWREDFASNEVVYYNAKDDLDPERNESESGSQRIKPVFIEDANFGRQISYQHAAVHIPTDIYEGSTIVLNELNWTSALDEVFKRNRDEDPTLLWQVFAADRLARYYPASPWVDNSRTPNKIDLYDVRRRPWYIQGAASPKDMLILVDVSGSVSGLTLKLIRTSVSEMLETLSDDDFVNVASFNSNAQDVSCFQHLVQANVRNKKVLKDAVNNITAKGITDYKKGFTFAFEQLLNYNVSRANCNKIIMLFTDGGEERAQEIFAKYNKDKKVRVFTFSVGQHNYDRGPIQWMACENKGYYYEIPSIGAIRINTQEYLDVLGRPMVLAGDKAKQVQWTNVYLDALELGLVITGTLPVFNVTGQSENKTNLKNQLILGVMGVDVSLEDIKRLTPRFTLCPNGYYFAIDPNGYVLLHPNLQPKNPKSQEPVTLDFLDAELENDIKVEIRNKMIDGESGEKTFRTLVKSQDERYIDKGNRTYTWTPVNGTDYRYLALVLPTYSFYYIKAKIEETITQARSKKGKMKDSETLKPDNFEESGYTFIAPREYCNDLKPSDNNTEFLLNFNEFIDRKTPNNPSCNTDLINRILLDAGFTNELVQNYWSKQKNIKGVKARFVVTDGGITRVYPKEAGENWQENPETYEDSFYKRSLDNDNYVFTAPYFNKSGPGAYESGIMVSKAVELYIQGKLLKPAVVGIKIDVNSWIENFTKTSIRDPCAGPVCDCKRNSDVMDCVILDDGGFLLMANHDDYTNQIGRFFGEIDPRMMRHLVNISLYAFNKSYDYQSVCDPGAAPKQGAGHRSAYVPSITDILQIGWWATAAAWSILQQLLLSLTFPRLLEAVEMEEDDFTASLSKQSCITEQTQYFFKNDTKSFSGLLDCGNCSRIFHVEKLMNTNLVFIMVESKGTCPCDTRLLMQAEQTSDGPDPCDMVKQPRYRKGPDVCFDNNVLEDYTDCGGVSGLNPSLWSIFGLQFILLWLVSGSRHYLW
T1 sequence (P54287 whole entry partner): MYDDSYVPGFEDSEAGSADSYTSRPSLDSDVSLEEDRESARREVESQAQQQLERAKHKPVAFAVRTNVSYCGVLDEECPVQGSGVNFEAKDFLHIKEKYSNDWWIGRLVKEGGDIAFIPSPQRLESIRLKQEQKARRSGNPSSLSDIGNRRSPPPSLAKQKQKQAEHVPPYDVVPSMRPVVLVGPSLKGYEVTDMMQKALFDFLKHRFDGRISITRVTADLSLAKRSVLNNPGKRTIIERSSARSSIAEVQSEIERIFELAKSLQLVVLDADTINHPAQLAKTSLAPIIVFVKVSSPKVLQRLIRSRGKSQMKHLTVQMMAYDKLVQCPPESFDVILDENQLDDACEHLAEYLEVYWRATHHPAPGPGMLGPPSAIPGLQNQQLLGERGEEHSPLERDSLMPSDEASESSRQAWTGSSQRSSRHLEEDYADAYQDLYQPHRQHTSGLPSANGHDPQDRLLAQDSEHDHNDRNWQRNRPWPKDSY
Experimental: Lumbar DRGs were dissected from 100 g female Sprague-Dawley rats using procedures as described previously (Gomez et al., 2022). DRGs were excised and placed in sterile DMEM (Cat #11965; Thermo Fisher Scientific, Waltham, MA). The ganglia were dissociated enzymatically with collagenase type I (5 mg/mL, Cat #LS004194; Worthington) and neutral protease (3.125 mg/mL, Cat #LS02104; Worthington, Lakewood, NJ) for 50 minutes at 37° C. under gentle agitation. The dissociated cells were then centrifuged (800 rpm for 5 min) and resuspended in DMEM containing 1% penicillin/streptomycin sulfate (Cat #15140, Life Technologies, Carlsbad, CA), 10% fetal bovine serum [HyClone]), and 30 ng/mL nerve growth factor (Cat #N2513, Millipore Sigma, St. Louis, MO). The cells were seeded on poly-D-lysine (Cat #P6407, Millipore Sigma, St. Louis, MO) and laminin (Cat #sc-29012, Santa Cruz Biotechnology, Dallas, TX) -coated 12- or 15-mm glass coverslips and incubated at 37° C. All cultures were used within 48 hours.
Immunocytochemistry was performed on DRG neurons incubated with vehicle (0.1% DMSO) or CBD3063 (20 μM) overnight. […] For all quantitative comparisons among cells under differing experimental conditions, camera gain and other relevant settings were kept constant. The freeware image analysis program Image J (http://rsb.info.nih.gov/ij/) was used for quantifying cellular fluorescence. […]

Na+ channels = assay: Whole-cell patch-clamp, total Na+ currents in DRG neurons; type: cell-based, rat
Experimental: Recordings were obtained from acutely dissociated DRG neurons as described earlier (Bellampalli et al., 2019). Patch-clamp recordings were performed at room temperature (22-24° C.). Currents were recorded using an EPC 10 Amplifier-HEKA (HEKA Elektronik, Ludwigshafen, Germany) linked to a computer with Patchmaster software. DRG neurons were incubated overnight (˜16-24 hours) with 20 μM of CBD3063.
For Na^+ current (INa^+) recordings, the external solution contained (in mM): 130 NaCl, 3 KCl, 30 tetraethylammonium chloride, 1 CaCl2, 0.5 CdCl2, 1 MgCl2, 10 D-glucose, and 10 HEPES (pH 7.3 adjusted with NaOH, and mOsm/L=324). Patch pipettes were filled with an internal solution containing (in mM): 140 CsF, 1.1Cs-EGTA, 10 NaCl, and 15 HEPES (pH 7.3 adjusted with CsOH, and mOsm/L=311). Peak Na^+ current was acquired by applying 150-millisecond voltage steps from −70 to +60 mV in 5-mV increments from a holding potential of −60 mV to obtain the current-voltage (I-V) relation.
Normalization of currents to each cell's capacitance (pF) was performed to allow for collection of current density data. For I-V curves, functions were fitted to data using a non-linear least squares analysis. I-V curves were fitted using double Boltzmann functions:
Activation curves were obtained from the I-V curves by dividing the peak current at each depolarizing step by the driving force according to the equation: G=I/(Vmem-Erev), where I is the peak current, Vmem is the membrane potential and Erev is the reversal potential. The conductance (G) was normalized against the maximum conductance (Gmax). For total and the different subtypes of Ca^2+ currents, steady-state inactivation (SSI) curves were obtained by applying an H-infinity protocol that consisted of 1.5-seconds conditioning pre-pulses from −100 to +30 mV in 10-mV increments followed by a 20-millisecond test pulse to +10 mV. For Na^+ currents, SSI curves were obtained by applying an H-infinity protocol that consisted of 1-second conditioning pre-pulses from −120 to +10 mV in 10-mV increments followed by a 200-millisecond test pulse to +10 mV. Inactivation curves were obtained by dividing the peak current recorded at the test pulse by the maximum current (Imax). Activation and SSI curves were fitted with the Boltzmann equation.

[1] = 20 μM overnight, mean ± SEM (n cells)

With CC(=O)N[C@@H]1CCCN(C(=O)NCCCNc2ccccn2)C1 [CBD3063, (3R)-3-acetamido-N-[3-(pyridin-2-ylamino)propyl]piperidine-1-carboxamide] the rheobase (rat DRG sensory neurons; 20 μM overnight (DMSO: 15.00±3.416)) was 48.33±9.098, the resting membrane potential (rat DRG sensory neurons; 20 μM overnight (DMSO: −44.50±1.478)) was −50.00±1.915 mV and the “number of evoked action potentials” value (rat DRG sensory neurons; 20 μM overnight, current injection steps 10 to 120 pA) was “reduced the number of evoked APs”. For the same molecule, the Cav2.2 membrane/cytosol ratio (Cav2.2) was 1.64±0.10, the “peak Na+ current density” value (Na+ channels; 20 μM overnight (DMSO: −455.7±78.70)) was −455.0±60.79 pA/pF and the “Na+ currents, activation V1/2” value (Na+ channels; [1]) was −21.738 ± 0.852 (12) mV. The “Na+ currents, activation k (slope factor)” value (Na+ channels; [1]) was 4.749 ± 0.744 (12), the “Na+ currents, inactivation V1/2” value (Na+ channels; [1]) was −32.552 ± 2.084 (12) mV and the “Na+ currents, inactivation k (slope factor)” value (Na+ channels; [1]) was −12.003 ± 1.936 (12).
